Measurements from patent US8551937B2, “Peptide having an extending action for half-life of object peptide in plasma” (priority 2008, dated 2013).
Where a SMILES comes first, the peptide text is derived from it. Bridges are numbered along the chain shown (N, C = ends). Where no end group is shown, it is not given here.

Tests used:
in vivo [1] = conditions: rat, iv
Experimental: Changes in CNP immunoreactivity concentration in plasma when the native CNP-22 shown by SEQ ID No: 101 was administered either solely or jointly with neutral endo-peptidase (NEP) inhibitor and compared with changes in CNP immunoreactivity concentration in plasma when native CNP-53 (SEQ ID No: 159) and the chimeric CNP (D) (structure mentioned already) were intravenously administered.
The experiment was conducted using rats where polyethylene tube (PE-50, manufactured by Clay Adams) was previously inserted into thigh artery under the anesthetized condition with Nembutal. In the group where the native CNP-22 was administered either solely or jointly with an NEP inhibitor, the polyethylene tube (PE-10, manufactured by Clay Adams) was also inserted into the thigh vein. As to a test system, male SD rats (Nippon Charles River) of 7 weeks age were used where one group comprised three rats. As to the NEP inhibitor, DL-Thiorphan (manufactured by Sigma) was used and, during the period from 10 minutes before the initiation of administration of the native CNP-22 until 60 minutes after the initiation of the administration where collection of the blood finished, 5% mannitol (100 μL/min/body) or NEP inhibitor (30 μg/100 μL/min/body) was subjected to a constant-speed intravenous administration for 70 minutes using an Infusion Pump (CFV 2100, manufactured by Nippon Koden K. K.). Native CNP-22, native CNP-53 or chimeric CNP (D) was administered into tail vein in a dose of 20 nmol/kg each and blood over the time from before administration and 60 minutes after administration was collected from a polyethylene tube inserted into the thigh artery. To the collected blood were added EDTA (Dojin Laboratories) and aprotinin (manufactured by Bayer) as a stabilizer and an anti-coagulant, respectively and the plasma was separated by means of centrifugal separation. CNP immunoreactivity concentration in the plasma was measured by a competitive radioimmunoassay (RIA). At that time, a rabbit polyclonal antibody (#2) which specifically recognizes a ring part structure which is the common structure for native CNP-22 and native CNP-53 was used as an antibody while, as a labeling compound, ^125I-[Tyr^0] CNP-22 was used.

in vivo [2] = conditions: male, SD, rat, iv, 10 nmol/kg
Experimental: The experiment was carried out using rats into which polyethylene tube (PE-50 manufactured by Clay Adams) was previously inserted into thigh artery under an anesthetized condition with Nembutal. As to a test system, male SD strain rats (Nippon Charles River) of 7 weeks age were used where one group comprised 3 rats. Native CNP-22 or chimeric CNP in a dose of 10 nmol/kg was administered into tail vein of the rat and the blood before the administration and until 60 minutes after the administration was collected by a polyethylene tube inserted into the thigh artery. To the collected blood were added EDTA (manufactured by Dojin Laboratories) and aprotinin (manufactured by Bayer) as a stabilizer and an anti-coagulant, respectively and the plasma was separated therefrom by centrifugal separation. CNP immunoreactivity concentration in plasma was measured by a competitive radioimmunoassay (RIA). At that time, a rabbit polyclonal antibody (#2) which specifically recognizes the ring partial structure of the native CNP-22 was used as an antibody and, as a labeled compound, ^125I-[Tyr^0] CNP was used.

| Compound | half-life compared with native CNP-22, native CNP-22 together with NEP inhibitor and native CNP-53 (in vivo [1]) | half-life (in vivo [2]) [min] | half-life (in vivo [1]; male, SD) [min] |
| --- | --- | --- | --- |
| CC[C@H](C)[C@@H]1NC(=O)[C@H](CCCNC(=N)N)NC(=O)[C@H](CC(=O)O)NC(=O)[C@H](CC(C)C)NC(=O)[C@H](CCCCN)NC(=O)[C@H](CC(C)C)NC(=O)CNC(=O)[C@H](Cc2ccccc2)NC(=O)[C@@H](NC(=O)CNC(=O)[C@H](CCCCN)NC(=O)[C@H](CO)NC(=O)[C@H](CC(C)C)NC(=O)CN)CSSC[C@@H](C(=O)N[C@H](C(=O)N[C@@H](CCC(N)=O)C(=O)N[C@@H](CCC(N)=O)C(=O)N[C@@H](CCCNC(=N)N)C(=O)N[C@@H](CCCCN)C(=O)N[C@@H](CCC(=O)O)C(=O)N[C@@H](CO)C(=O)N[C@@H](CCCCN)C(=O)N[C@@H](CCCCN)C(=O)N2CCC[C@H]2C(=O)N2CCC[C@H]2C(=O)N[C@@H](C)C(=O)N[C@@H](CCCCN)C(=O)N[C@@H](CC(C)C)C(=O)N[C@@H](CCC(N)=O)C(=O)N2CCC[C@H]2C(=O)N[C@@H](CCCNC(=N)N)C(=O)O)C(C)C)NC(=O)CNC(=O)[C@H](CC(C)C)NC(=O)CNC(=O)[C@H](CO)NC(=O)[C@H](CCSC)NC(=O)[C@H](CO)NC(=O)CNC1=O [Chimeric CNP (D)] (H-GLSKGCFGLKLDRIGSMSGLGCVQQRKESKKPPAKLQPR-OH; disulfide 6-22; N-terminus and C-terminus assumed) | longer half-life | 20.3 |  |
| CC[C@H](C)[C@@H]1NC(=O)[C@H](CCCNC(=N)N)NC(=O)[C@H](CC(=O)O)NC(=O)[C@H](CC(C)C)NC(=O)[C@H](CCCCN)NC(=O)[C@H](CC(C)C)NC(=O)CNC(=O)[C@H](Cc2ccccc2)NC(=O)[C@@H](NC(=O)[C@@H](NC(=O)[C@H](CCC(N)=O)NC(=O)[C@H](CCC(N)=O)NC(=O)[C@H](CCCNC(=N)N)NC(=O)[C@H](CCCCN)NC(=O)[C@H](CCC(=O)O)NC(=O)[C@H](CO)NC(=O)[C@H](CCCCN)NC(=O)[C@H](CCCCN)NC(=O)[C@@H]2CCCN2C(=O)[C@@H]2CCCN2C(=O)[C@H](C)NC(=O)[C@H](CCCCN)NC(=O)[C@H](CC(C)C)NC(=O)[C@H](CCC(N)=O)NC(=O)[C@@H]2CCCN2C(=O)[C@@H](N)CCCNC(=N)N)C(C)C)CSSC[C@@H](C(=O)O)NC(=O)CNC(=O)[C@H](CC(C)C)NC(=O)CNC(=O)[C@H](CO)NC(=O)[C@H](CCSC)NC(=O)[C@H](CO)NC(=O)CNC1=O [Chimeric CNP (H)] (H-RPQLKAPPKKSEKRQQVCFGLKLDRIGSMSGLGC-OH; disulfide 18-34; N-terminus and C-terminus assumed) |  | 14.9 |  |
| CC[C@H](C)[C@@H]1NC(=O)[C@H](CCCNC(=N)N)NC(=O)[C@H](CC(=O)O)NC(=O)[C@H](CC(C)C)NC(=O)[C@H](CCCCN)NC(=O)[C@H](CC(C)C)NC(=O)CNC(=O)[C@H](Cc2ccccc2)NC(=O)[C@@H](N)CSSC[C@@H](C(=O)N[C@H](C(=O)N[C@@H](CCC(N)=O)C(=O)N[C@@H](CCC(N)=O)C(=O)N[C@@H](CCCNC(=N)N)C(=O)N[C@@H](CCCCN)C(=O)N[C@@H](CCC(=O)O)C(=O)N[C@@H](CO)C(=O)N[C@@H](CCCCN)C(=O)N[C@@H](CCCCN)C(=O)N2CCC[C@H]2C(=O)N2CCC[C@H]2C(=O)N[C@@H](C)C(=O)N[C@@H](CCCCN)C(=O)N[C@@H](CC(C)C)C(=O)N[C@@H](CCC(N)=O)C(=O)N2CCC[C@H]2C(=O)N[C@@H](CCCNC(=N)N)C(N)=O)C(C)C)NC(=O)CNC(=O)[C@H](CC(C)C)NC(=O)CNC(=O)[C@H](CO)NC(=O)[C@H](CCSC)NC(=O)[C@H](CO)NC(=O)CNC1=O [Chimeric CNP (I)] (H-CFGLKLDRIGSMSGLGCVQQRKESKKPPAKLQPR-NH2; disulfide 1-17; N-terminus assumed) |  | 14.5 |  |
| CC[C@H](C)[C@@H]1NC(=O)[C@H](CCCNC(=N)N)NC(=O)[C@H](CC(=O)O)NC(=O)[C@H](CC(C)C)NC(=O)[C@H](CCCCN)NC(=O)[C@H](CC(C)C)NC(=O)CNC(=O)[C@H](Cc2ccccc2)NC(=O)[C@@H](NC(=O)CNC(=O)[C@H](CCCCN)NC(=O)[C@H](CO)NC(=O)[C@H](CC(C)C)NC(=O)CNC(=O)[C@H](CCCCN)NC(=O)[C@H](CCCCN)NC(=O)[C@H](CC(N)=O)NC(=O)[C@H](C)NC(=O)CNC(=O)[C@H](CCCCN)NC(=O)[C@H](Cc2ccc(O)cc2)NC(=O)[C@H](CCCCN)NC(=O)[C@H](CCCNC(=N)N)NC(=O)[C@H](C)NC(=O)[C@H](CC(N)=O)NC(=O)[C@@H]2CCCN2C(=O)[C@H](Cc2c[nH]cn2)NC(=O)[C@H](CCC(=O)O)NC(=O)[C@H](CCC(N)=O)NC(=O)[C@H](CC(C)C)NC(=O)[C@H](CC(C)C)NC(=O)[C@H](CCCNC(=N)N)NC(=O)[C@H](C)NC(=O)[C@H](Cc2c[nH]c3ccccc23)NC(=O)[C@H](C)NC(=O)[C@H](C)NC(=O)[C@H](CCCNC(=N)N)NC(=O)[C@H](CO)NC(=O)[C@H](CCCCN)NC(=O)[C@@H](NC(=O)[C@H](CC(=O)O)NC(=O)[C@@H](NC(=O)[C@H](CCCNC(=N)N)NC(=O)[C@H](CC(C)C)NC(=O)[C@@H](N)CC(=O)O)C(C)C)[C@@H](C)O)CSSC[C@@H](C(=O)O)NC(=O)CNC(=O)[C@H](CC(C)C)NC(=O)CNC(=O)[C@H](CO)NC(=O)[C@H](CCSC)NC(=O)[C@H](CO)NC(=O)CNC1=O [Native CNP-53] |  |  | 15.7 |
| RPQLKAPPKKSEKRQQVCFGLKLDRIGSMSGLGCVQQRKESKKPPAKLQPR (disulfide 18-34) [Chimeric CNP (F)] |  | 17.4 |  |
| VQQRKESKKPPAKLQPRCFGLKLDRIGSMSGLGCVQQRKESKKPPAKLQPR (disulfide 18-34) [Chimeric CNP (E)] |  | 18.4 |  |
